From patent US20050072047A1, “Tobacco having reduced nicotine and nitrosamines” (priority 2002, published 2005)
Read-outs that look alike come from different tables or passages of the source.

Columns and labels:
tobacco plants [1] = conditions: early flowering stage; Fung et al. 1973; cited from earlier work
tobacco plants [2] = test: Nicotine and TSNA levels of field tobacco plants contacted with the compound, versus untreated plants; assay type: in vivo; conditions: compared to untreated tobacco plants
Protocol: To reduce the level of nicotine and/or nitrosamine in a cultivated crop or field of tobacco, a concentrated solution of 2,4-D in water (e.g., a 10% solution) with the wetting agent “Agral 60” (e.g., a 0.0006% v/v miscible oil emulsion) is prepared. A control solution containing the wetting agent without 2,4-D is also prepared. These solutions are diluted to 0.1, 1, 10, or 100 ppm of 2,4-D in the final spray solution. Control and experimental fields of tobacco (e.g., Burley, Virginia Flue, and Oriental varieties in separate test plots cultivated by conventional techniques for the particular varieties) at various ages of maturity (some of which have been topped) are sprayed with parallel dilutions of the wetting agent alone. Plants are then sprayed with the above solutions to the dripping-off point. Plants are allowed to continue growing normally for 14 days. Plants are then harvested and sample leaves (from the same position on the plants of the same age) are quick-frozen using liquid nitrogen. Nicotine levels are measured on these sample leaves using standard techniques.
A quick drying curing technique or a conventional curing technique particular to the variety being tested is employed to obtain cured leaves (non-green or yellow dried leaves). Conventional TSNA analysis is then performed on the cured leaves and stems and/or portions thereof (e.g., lamina and midrib of the leaf). By following this approach, the amount of 2,4-D to apply to a specific variety of tobacco, for a specific age of plant (topped or not topped) in the field to achieve a reduced nicotine and/or nitrosamine level is readily determined. In the following example, ethylene precursors, such as ethephon, are used to decrease jasmonate-induced nicotine and/or nitrosamine levels in tobacco.

[3] = system: jasmonic acid levels in plants; conditions: Schweizer et al. 1997; cited from earlier work
lipoxygenase [4] = conditions: potato; Kolomiets et al. 2001; cited from earlier work
lipoxygenase [5] = conditions: soybean; Creelman 1992; cited from earlier work

O=C(O)COc1ccc(Cl)cc1Cl [2,4-D, 2,4-Dichlorophenoxyacetic acid]
harm to tobacco plants (tobacco plants [1]): most harmful to tobacco plants during the early flowering stage
level of TSNAs in treated tobacco plants (tobacco plants [2]): reduced levels
level of nicotine in treated tobacco plants (tobacco plants [2]): reduced levels

O=C(O)c1ccccc1O [salicylic acid, 2-hydroxybenzoic acid]
level of TSNAs in treated tobacco plants (tobacco plants [2]): reduced amount
level of nicotine in treated tobacco plants (tobacco plants [2]): reduced amount

Clc1ccc(N2N=N[C@@H]3[C@@H]4C[C@@H]([C@H]5N=N[C@@H]45)[C@@H]32)cc1 [tetcyclacis]
level of TSNAs in treated tobacco plants (tobacco plants [2]): reduced amount
level of nicotine in treated tobacco plants (tobacco plants [2]): reduced amount
effect on jasmonic acid levels in plants [3]: inhibit jasmonic acid levels

COc1ccc2cc([C@H](C)C(=O)O)ccc2c1 [Naproxen]
effect on lipoxygenase activity (lipoxygenase [4]): inhibit lipoxygenase activity
effect on lipoxygenase activity (lipoxygenase [5]): inhibit lipoxygenase activity
